Earlier results in patent US10533225B2, “Methods and systems for monitoring, diagnosing, and treating chronic obstructive pulmonary disease” (Trustees of Boston University, priority 2012, dated 2020).

Tests used:
[1] = test system: ER stress markers and airspace; conditions: mice, administration
PI3K pathway activation = conditions: smokers with airway epithelial cell dysplasia

| Compound | ER stress markers [1] | airspace change [1] | airway PI3K pathway activation (PI3K pathway activation) |
| --- | --- | --- | --- |
| C=CC=O [acrolein] | increase in ER stress markers | airspace enlargement |  |
| O[C@H]1[C@H](O)[C@@H](O)[C@H](O)[C@@H](O)[C@H]1O [myo-inositol] |  |  | reversible |
